Reference: the supplement of paper PMC10307832

Tests used:
Test in all cases: relative viability (nuclei count vs DMSO), 5 days (fraction); higher = more cells survive
XMD13-2 + Foretinib = compound: C1CC1C(=O)NC2=NNC3=C2C=CC(=C3)C4=CC(=CC=C4)C(=O)NC5CC5 [XMD13-2] + COc1cc2c(Oc3ccc(NC(=O)C4(C(=O)Nc5ccc(F)cc5)CC4)cc3F)ccnc2cc1OCCCN1CCOCC1 [Foretinib] (partner 0.25 µM)
Procedure, shortened: (§1)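 Lung cancer cell lines were pin-tool dosed in 1536-well plates on the day after seeding, with either a lone drug or a fixed anchor-drug dose plus five library-drug doses (not always all listed) in √10 steps. Nuclei were counted on 4× images after 5 days. Relative viability is the ratio of treated-well to vehicle-well nuclei counts, with each value a median of duplicate plates.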

XMD13-2 + Phenformin = compound: C1CC1C(=O)NC2=NNC3=C2C=CC(=C3)C4=CC(=CC=C4)C(=O)NC5CC5 [XMD13-2] + N=C(N)NC(=N)NCCc1ccccc1 [Phenformin] (partner 250 µM)
Procedure, shortened: as §1

ALW-II-49-7 + Lapatinib = compound: Cc1ccc(C(=O)Nc2cccc(C(F)(F)F)c2)cc1Nc1cncc(C(N)=O)c1 [ALW-II-49-7] + CS(=O)(=O)CCNCc1ccc(-c2ccc3ncnc(Nc4ccc(OCc5cccc(F)c5)c(Cl)c4)c3c2)o1 [Lapatinib] (partner 2 µM)
Procedure, shortened: as §1

ALW-II-49-7 + Crizotinib = compound: Cc1ccc(C(=O)Nc2cccc(C(F)(F)F)c2)cc1Nc1cncc(C(N)=O)c1 [ALW-II-49-7] + C[C@@H](Oc1cc(-c2cnn(C3CCNCC3)c2)cnc1N)c1c(Cl)ccc(F)c1Cl [Crizotinib] (partner 1 µM)
Procedure, shortened: as §1

Cell Line	relative viability (XMD13-2 + Foretinib; first compound 0.05 µM)	relative viability (XMD13-2 + Foretinib; first compound 0.1581 µM)	relative viability (XMD13-2 + Foretinib; first compound 0.5 µM)	relative viability (XMD13-2 + Foretinib; first compound 1.581 µM)	relative viability (XMD13-2 + Foretinib; first compound 5 µM)	relative viability (XMD13-2 + Phenformin; first compound 0.05 µM)	relative viability (XMD13-2 + Phenformin; first compound 0.1581 µM)	relative viability (XMD13-2 + Phenformin; first compound 0.5 µM)	relative viability (XMD13-2 + Phenformin; first compound 1.581 µM)	relative viability (XMD13-2 + Phenformin; first compound 5 µM)	relative viability (ALW-II-49-7 + Lapatinib; first compound 0.08 µM)	relative viability (ALW-II-49-7 + Lapatinib; first compound 0.253 µM)	relative viability (ALW-II-49-7 + Lapatinib; first compound 0.8 µM)	relative viability (ALW-II-49-7 + Lapatinib; first compound 2.53 µM)	relative viability (ALW-II-49-7 + Lapatinib; first compound 8 µM)	relative viability (ALW-II-49-7 + Crizotinib; first compound 0.08 µM)	relative viability (ALW-II-49-7 + Crizotinib; first compound 0.253 µM)	relative viability (ALW-II-49-7 + Crizotinib; first compound 0.8 µM)	relative viability (ALW-II-49-7 + Crizotinib; first compound 2.53 µM)	relative viability (ALW-II-49-7 + Crizotinib; first compound 8 µM)
201T	1.28	1.09	1.12	1.15	1.16	0.462	0.45	0.397	0.467	0.464	1.08	1.1	1.05	1.03	0.903	1.04	1.08	1.04	1.06	1.04
LC-2-ad	1.07	1.07	0.987	0.789	0.807	0.586	0.584	0.669	0.546	0.528	0.812	0.96	0.932	0.947	0.753	0.354	0.461	0.476	0.378	0.393
NCI-H596	0.89	0.62	1.03	0.852	0.888	0.768	0.863	0.78	0.913	0.836	1.03	1.1	1.13	1.02	0.978	0.892	0.911	0.978	0.997	1.07
NCI-H1437	1.2	1.25	1.25	1.24	1.27	0.297	0.305	0.299	0.311	0.341	0.786	0.731		0.786	0.749	0.897	0.865		0.869	0.896
NCI-H727	1.21	0.903	0.946	0.738	0.737	0.619	0.518	0.556	0.584	0.525	0.984	1.08	0.872	0.965	0.871	0.739	0.874	0.847	0.804	0.885
PC-3 [JPC-3]	1.02	1.02	1.05	0.999	0.989	0.5	0.49	0.48	0.523	0.54	0.387	0.461	0.485	0.471	0.419	0.854	0.979	1.05	1.06	1.01
SW 1573	1.01	0.832	0.984	0.841	0.733	0.443	0.385	0.384	0.26	0.24	1.14	1.21	1.1	1.2	1.15	0.884	0.747	0.748	1.1	0.707
NCI-H1792						0.29	0.306	0.259	0.324	0.352	0.673	0.881	0.943	0.98	0.774	0.795	0.866	0.819	0.827	0.878
